In brackets after ≈: the same amount, converted by molar mass. Activity calls are given as the source filed them. The rule behind the calls is not given here.

Data on 13 compounds can be found in ChEMBL document CHEMBL6109093, “Designing novel nucleoside inhibitors targeting the allosteric site of PBP2a: A strategic approach to overcome resistance in MRSA” (Bioorg Med Chem, 2025).

The subject of data set [1] is Staphylococcus aureus. The data set can be described thus: Antibacterial activity against methicillin-resistant Staphylococcus aureus Mu 50 measured after 24 hrs by turbidimetric assay. It counts as functional.
The test system of data set [2] is Staphylococcus aureus. The data set can be described thus: Resistance development in methicillin-resistant Staphylococcus aureus Mu 50 assessed as fold change in MIC after and before 6 passages by broth dilution method. The format is functional. For orientation: In broth dilution the organism is exposed to a series of concentrations in liquid medium.
Data set [3] has as its system Staphylococcus aureus. The data set can be described thus: Resistance development in methicillin-resistant Staphylococcus aureus Mu 50 assessed as MIC after 9 passages by broth dilution method. The format is functional.
The subject of data set [4] is Staphylococcus aureus. Put plainly: Antibacterial activity against methicillin-sensitive Staphylococcus aureus ATCC 29213 measured after 24 hrs by turbidimetric assay. It counts as functional.
Data set [5] is described as follows: Cytotoxicity against human intestinal epithelial cells assessed as reduction in cell viability at 64 ug/ml measured after 24 hrs by CCK-8 assay. It counts as toxicity, cell-based. As to conditions: dose 64 µg/ml. Background: Tetrazolium assays rely on reduction of a dye to a coloured formazan, in cell work by metabolically active cells.
For data set [6], the target named is T1, MecA (Staphylococcus aureus) (UniProt Q7DHH4).
T1 sequence (whole entry): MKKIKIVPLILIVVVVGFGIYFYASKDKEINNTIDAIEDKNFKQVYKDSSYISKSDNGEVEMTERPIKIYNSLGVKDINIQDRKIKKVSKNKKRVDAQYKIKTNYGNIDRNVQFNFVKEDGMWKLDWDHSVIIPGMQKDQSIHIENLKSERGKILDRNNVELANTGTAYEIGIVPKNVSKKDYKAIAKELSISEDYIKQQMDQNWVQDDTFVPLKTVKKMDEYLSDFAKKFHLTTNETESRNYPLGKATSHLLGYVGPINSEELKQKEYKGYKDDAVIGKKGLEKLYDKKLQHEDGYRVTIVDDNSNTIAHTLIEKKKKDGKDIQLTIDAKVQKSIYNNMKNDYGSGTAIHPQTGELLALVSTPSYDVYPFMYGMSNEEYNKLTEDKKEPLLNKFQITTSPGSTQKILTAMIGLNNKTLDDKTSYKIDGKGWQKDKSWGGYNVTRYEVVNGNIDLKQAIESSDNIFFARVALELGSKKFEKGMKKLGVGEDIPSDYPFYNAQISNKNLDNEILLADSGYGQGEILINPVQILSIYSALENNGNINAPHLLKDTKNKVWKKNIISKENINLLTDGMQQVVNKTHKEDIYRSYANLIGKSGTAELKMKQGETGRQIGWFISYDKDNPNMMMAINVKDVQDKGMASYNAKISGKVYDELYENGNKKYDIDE
The data set can be described thus: Inhibition of PBP2a in methicillin-resistant Staphylococcus aureus Mu 50 assessed as blurred cell wall boundaries at 16 ug/ml measured after 12 hrs by transmission electron microscopy. Conditions: dose 16.0 µg/ml.

Data set [7] relates to Staphylococcus aureus. The data set can be described thus: Bactericidal activity against methicillin-resistant Staphylococcus aureus Mu 50 assessed as reduction in colony formation measured after 2 to 24 hrs by time-kill assay. Conditions: dose 8-32 µg/ml, time 2-24 hrs. It counts as functional, organism-based.
Data set [8] concerns Staphylococcus aureus. The data set can be described thus: Synergistic antibacterial activity against methicillin-resistant Staphylococcus aureus Mu 50 at 16 to 32 ug/ml measured at 1 hr interval for 24 hrs in presence of oxacillin. It counts as functional, organism-based. Conditions: dose 16-32 µg/ml.
Data set [9] has as its target T1, MecA (Staphylococcus aureus). Put plainly: Inhibition of PBP2a in methicillin-resistant Staphylococcus aureus Mu 50 assessed as abnormal cell division at 16 ug/ml measured after 12 hrs by transmission electron microscopy. Conditions: dose 16.0 µg/ml.
Data set [10] deals with Staphylococcus aureus. Put plainly: Antibacterial activity against methicillin-resistant Staphylococcus aureus Mu 50 at 4 to 32 ug/ml measured at 1 hr interval for 24 hrs. The format is functional, organism-based. Conditions: dose 4-32 µg/ml.
For data set [11], the system named is Staphylococcus aureus. The data set can be described thus: Synergistic antibacterial activity against methicillin-resistant Staphylococcus aureus Mu 50 at 64 to 128 ug/ml measured at 1 hr interval for 24 hrs in presence of oxacillin. As to conditions: dose 64-128 µg/ml. The format is functional, organism-based.
A short description of data set [12]: Cytotoxicity against mouse BEND3 cells assessed as reduction in cell viability at 64 ug/ml measured after 24 hrs by CCK-8 assay. It counts as toxicity, cell-based. Conditions: bend3, 24 h, dose 64 µg/ml.
The next data set concerns Escherichia coli. Put plainly: Antibacterial activity against Escherichia coli ATCC 25922 measured after 24 hrs by turbidimetric assay. The format is functional.
The test system of data set [13] is Staphylococcus aureus. The data set can be described thus: Bactericidal activity against methicillin-resistant Staphylococcus aureus Mu 50 assessed as reduction in colony formation at 8 to 32 ug/ml measured after 3 hrs by time-kill assay. The format is functional, organism-based. As to conditions: dose 8-32 µg/ml.
Data set [14] relates to Staphylococcus aureus. The data set can be described thus: Antibacterial activity against methicillin-sensitive Staphylococcus aureus ATCC 29213 at 4 to 32 ug/ml measured at 1 hr interval for 24 hrs. It counts as functional, organism-based. As to conditions: dose 4-32 µg/ml.
Data set [15] addresses T1, MecA (Staphylococcus aureus). Put plainly: Inhibition of PBP2a in methicillin-resistant Staphylococcus aureus Mu 50 assessed as disruption of bacterial cell wall integrity by measuring release of intracellular contents at 64 ug/ml measured after 12 hrs by transmission electron microscopy. It counts as cell-based. Conditions: dose 64.0 µg/ml.

As usually defined, the MIC is the least concentration at which growth counts as inhibited. Take `CCO/N=C(\C(=O)N[C@@H]1C(=O)N2C(C(=O)[O-])=C(Sc3nc(-c4cc[n+](C)cc4)cs3)CS[C@H]12)c1nsc(NP(=O)(O)O)n1` [CEFTAROLINE FOSAMIL]: the MIC in the data set with Staphylococcus aureus [1] is 32 µg/mL (≈ 46.7 µM); in the data set with Staphylococcus aureus [3], 128 µg/mL (≈ 187 µM). In addition, the “fold change (FC)” value with Staphylococcus aureus [2] stood at 2.
On to `Nc1ncnc2c1c(C#Cc1ccc3sccc3c1)cn2[C@@H]1O[C@H](CSCc2cccc(C(=O)O)c2)[C@@H](O)[C@H]1O`, for which the MIC in the data set on Staphylococcus aureus [4] was more than 128 µg/mL; with Staphylococcus aureus [1], 16 µg/mL (≈ 27.9 µM); in the data set on Staphylococcus aureus [3] it was 64 µg/mL (≈ 112 µM); with Escherichia coli, more than 128 µg/mL. In addition, the Activity result in data set [5] was “Non-toxic”; in the data set on Staphylococcus aureus [7] it was “Dose-dependent-effect”; with Staphylococcus aureus [8], “Active; Enhanced The Inhibitory Effect Of Oxacillin”; in the data set on Staphylococcus aureus [10] it was “Active; Significant Inhibition Observed”; in the data set on Staphylococcus aureus [11], “Not active; Decreased The Activity Of Oxacillin”; in data set [12], “Non-toxic”. The Activity entry in the data set on Staphylococcus aureus [13] is “Active; Significant Reduction Observed”. Moreover, the inhibition entry in data set [6] and in data set [9] was “Active; Significantly Inhibits The Cross-Linking Of Peptidoglycan Substrates By Pbp2A” throughout. In addition, the outcome in the data set on Staphylococcus aureus [14] was inactive.
`Nc1ncnc2c1ncn2[C@@H]1O[C@H](CSCc2cccc(C(=O)O)c2)[C@@H](O)[C@H]1O`: the MIC against Staphylococcus aureus [4], in the data set on Staphylococcus aureus [1] and in the data set on Escherichia coli was more than 128 µg/mL in each case.
As for `Nc1ncnc2c1c(C#Cc1ccccc1)cn2[C@@H]1O[C@H](CSCc2cccc(C(=O)O)c2)[C@@H](O)[C@H]1O`, the MIC with Staphylococcus aureus [4], in the data set on Staphylococcus aureus [1] and in the data set with Escherichia coli was more than 128 µg/mL in each case.
As to `Nc1ncnc2c1ncn2[C@@H]1O[C@H](CSCc2cccc(C(=O)O)n2)[C@@H](O)[C@H]1O`, the MIC against Staphylococcus aureus [4], against Staphylococcus aureus [1] and with Escherichia coli was more than 128 µg/mL each time.
With `Nc1ncnc2c1ncn2[C@@H]1O[C@H](CSCc2cc(C(=O)O)no2)[C@@H](O)[C@H]1O`, the MIC in the data set on Staphylococcus aureus [4], against Staphylococcus aureus [1] and with Escherichia coli was more than 128 µg/mL throughout.
In the data set with Staphylococcus aureus [1], `Cc1onc(-c2ccccc2)c1C(=O)N[C@@H]1C(=O)N2[C@@H]1SC(C)(C)[C@@H]2C(=O)O` [OXACILLIN] yielded an MIC of 64 µg/mL (≈ 159 µM). Besides, the inhibition entry in [15] was “Active”.
Regarding `Nc1ncnc2c1c(C#Cc1cccnc1)cn2[C@@H]1O[C@H](CSCc2cccc(C(=O)O)c2)[C@@H](O)[C@H]1O`, the MIC against Staphylococcus aureus [4], in the data set on Staphylococcus aureus [1] and in the data set with Escherichia coli was more than 128 µg/mL throughout.
With `Nc1ncnc2c1c(C#Cc1cccc([N+](=O)[O-])c1)cn2[C@@H]1O[C@H](CSCc2cccc(C(=O)O)c2)[C@@H](O)[C@H]1O`, the MIC against Staphylococcus aureus [4], in the data set on Staphylococcus aureus [1] and against Escherichia coli was more than 128 µg/mL throughout.
In the case of `N#Cc1cccc(CSC[C@H]2O[C@@H](n3cnc4c(N)ncnc43)[C@H](O)[C@@H]2O)c1`, the MIC against Staphylococcus aureus [4], in the data set on Staphylococcus aureus [1] and with Escherichia coli was more than 128 µg/mL throughout.
Turning to `Nc1ncnc2c1c(C#Cc1cccc(F)c1)cn2[C@@H]1O[C@H](CSCc2cccc(C(=O)O)c2)[C@@H](O)[C@H]1O`, the MIC in the data set with Staphylococcus aureus [4], with Staphylococcus aureus [1] and in the data set on Escherichia coli was more than 128 µg/mL in each case.
For `Nc1ncnc2c1c(C#Cc1ccc3ccccc3c1)cn2[C@@H]1O[C@H](CSCc2cccc(C(=O)O)c2)[C@@H](O)[C@H]1O`, the MIC against Staphylococcus aureus [4] is more than 128 µg/mL; against Staphylococcus aureus [1] it was 32 µg/mL (≈ 56.5 µM); with Escherichia coli it was more than 128 µg/mL.
Turning to `Nc1ncnc2c1ncn2[C@@H]1O[C@H](CSCc2cncc(C(=O)O)n2)[C@@H](O)[C@H]1O`, the MIC against Staphylococcus aureus [4], against Staphylococcus aureus [1] and in the data set with Escherichia coli was more than 128 µg/mL in each case.
